Converted amounts (≈) assume the structure as drawn.
Columns and labels:
[1] = system: N. gonorrhoeae ATCC 49226; test: MIC assay for N. gonorrhoeae, broth microdilution in Todd-Hewitt (TH) broth; assay type: cell-based; details: Neisseria gonorrhoeae, ATCC49226; Antibacterial Activity against N. gonorrhoeae ATCC 49226 in TH
Source text: MIC assays for N. gonorrhoeae were done using the ATCC 49226 strain. The procedure guidelines recommended by the Clinical and Laboratory Standards Institute (CLSI) for the broth microdilution MIC assay were modified by substituting […]. Also, the recommended bacterial inoculum was modified to meet the high inoculum demands needed for N. gonorrhoeae growth. A 96-well plate containing TH broth with 2-fold serial dilution of compounds was inoculated with log-phase bacterial at 2.5×10^7 CFU/mL. The final volume in each well was 200 μL. Each compound was tested in duplicate. The microtiter plates were incubated in an […] environment for 24 hours at 37° C. using the candle jar technique. Then the bacterial growth was tested by reading the plate with a SpectraMax iD5 plate reader (Molecular Devices, Inc.) at 600 nm. The MIC was defined as the lowest compound concentration that inhibited bacteria growth.

P. aeruginosa ATCC 27853 = test: MIC assay, CLSI broth microdilution in CAMH broth; assay type: cell-based, Pseudomonas aeruginosa; details: P. aeruginosa ATCC 278538
Protocol: (§1) MIC assays for various Gram-negative and Gram-positive strains were conducted in accordance with the CLSI guidelines for broth microdilution. A 96-well plate containing CAMH broth with 2-fold serial dilution of compounds was inoculated with log-phase bacterial at 5×10^5 CFU/mL. The final volume in each well was 100 μL. Each compound was tested in duplicate. The microtiter plates were incubated in an aerobic environment for 18 hours at 37° C. Then the bacterial growth was tested by reading the plate with a SpectraMax iD5 plate reader (Molecular Devices, Inc.) at 600 nm. The MIC was defined as the lowest compound concentration that inhibited bacteria growth.
(§2) The following Gram-negative and Gram-positive strains were used in the aerobic MIC procedure: • P. aeruginosa ATCC 27853 • A. baumannii ATCC 19606 • E. coli ATCC 25922 • E. coli W4573 • E. coli N43 • K. pneumoniae ATCC 10031 • K. pneumoniae ATCC 13883 • S. sonnei ATCC 29930 • P. mirabilis ATCC 29906 • Methicillin-susceptible S. aureus (MSSA) ATCC 19636 • Methicillin-resistant S. aureus (MRSA) ATCC 33951

E. coli W4573 = test: MIC assay, CLSI broth microdilution in CAMH broth; assay type: cell-based, Escherichia coli
Protocol: as §1, §2

K. pneumoniae ATCC 10031 = test: MIC assay, CLSI broth microdilution in CAMH broth; assay type: cell-based, Klebsiella pneumoniae; details: K. pneumonias ATCC 10031
Protocol: as §1, §2

K. pneumoniae ATCC 13883 = test: MIC assay, CLSI broth microdilution in CAMH broth; assay type: cell-based, Klebsiella pneumoniae; details: K. pneumonias ATCC 13883
Protocol: as §1, §2

P. mirabilis ATCC 29906 = test: MIC assay, CLSI broth microdilution in CAMH broth; assay type: cell-based, Proteus mirabilis
Protocol: as §1, §2

[2] = system: Methicillin-susceptible S. aureus (MSSA) ATCC 19636; test: MIC assay, CLSI broth microdilution in CAMH broth; assay type: cell-based, Staphylococcus aureus
Protocol: as §1, §2

[3] = system: Methicillin-resistant S. aureus (MRSA) ATCC 33591; test: MIC assay, CLSI broth microdilution in CAMH broth; assay type: cell-based, Staphylococcus aureus
Protocol: as §1, with “growth. […]” for “growth.”

E. coli N43 = test: MIC assay, CLSI broth microdilution in CAMH broth; assay type: cell-based, Escherichia coli
Protocol: as §1, §2

| SMILES | MIC [1] [µg/mL] | Intrinsic MIC in CAMH (P. aeruginosa ATCC 27853) | Intrinsic MIC in CAMH (E. coli W4573) | Intrinsic MIC in CAMH (K. pneumoniae ATCC 10031) | Intrinsic MIC in CAMH (K. pneumoniae ATCC 13883) | Intrinsic MIC in CAMH (P. mirabilis ATCC 29906) | Intrinsic MIC in CAMH [2] | Intrinsic MIC in CAMH [3] | Intrinsic MIC in CAMH (E. coli N43) |
| --- | --- | --- | --- | --- | --- | --- | --- | --- | --- |
| Nc1nc(N)c2ccc3c(ccn3Cc3cc(Br)ccc3F)c2n1 [Example 34, 7-(5-bromo-2-fluorobenzyl)-7H-pyrrolo[2,3-h]quinazoline-2,4-diamine] | 16 (≈ 41.4 µM) | >64¤ | 2¤ | <0.125¤ | 64¤ | 64¤ | ≤0.063¤ | ≤0.063¤ |  |
| Nc1nc(N)c2ccc3c(ccn3Cc3ccc(Br)cc3Br)c2n1 [Example 35, 7-(2,4-dibromobenzyl)-7H-pyrrolo[2,3-h]quinazoline-2,4-diamine] | 4 (≈ 8.95 µM) | >64¤ | 8¤ | 0.25¤ | >64¤ | >64¤ | 0.5¤ | 1¤ | <0.125¤ |
| N#Cc1ccccc1-c1ccc(Cn2ccc3c4nc(N)nc(N)c4ccc32)cc1F [Example 38, 4′-((2,4-diamino-7H-pyrrolo[2,3-h]quinazolin-7-yl)methyl)-2′-fluoro-[1,1′-biphenyl]-2-carbonitrile] | 0.125 (≈ 0.306 µM) | >64¤ | 1¤ | <0.125¤ | 16¤ | >64¤ | ≤0.063¤ | ≤0.063¤ |  |
| N#Cc1ccccc1-c1ccc(Cn2ccc3c4nc(N)nc(N)c4ccc32)c(F)c1 [Example 39, 4′-((2,4-diamino-7H-pyrrolo[2,3-h]quinazolin-7-yl)methyl)-3′-fluoro-[1,1′-biphenyl]-2-carbonitrile] |  | >64¤ | 8¤ | 1¤ | >64¤ | >64¤ | ≤0.063¤ | ≤0.063¤ | ≤0.063¤ |
| Nc1nc(N)c2ccc3c(ccn3CC#Cc3ccccc3)c2n1 [Example 41, 7-(3-phenylprop-2-yn-1-yl)-7H-pyrrolo[2,3-h]quinazoline-2,4-diamine] | 8 (≈ 25.5 µM) | >64¤ | 2¤ | <0.125¤ | 8¤ | >64¤ | 0.5¤ | 1¤ |  |
| C#Cc1ccc(Cn2ccc3c4nc(N)nc(N)c4ccc32)cc1 [Example 42, 7-(4-ethynylbenzyl)-7H-pyrrolo[2,3-h]quinazoline-2,4-diamine] | 8 (≈ 25.5 µM) | >64¤ | 4¤ | <0.125¤ | 32¤ | 32¤ | ≤0.063¤ | ≤0.063¤ |  |
| Nc1nc(N)c2ccc3c(ccn3Cc3cccc(C#Cc4ccccc4)c3)c2n1 [Example 44, 7-(3-(phenylethynyl)benzyl)-7H-pyrrolo[2,3-h]quinazoline-2,4-diamine] |  | >64¤ | >64¤ | 32¤ | >64¤ | >64¤ | 2¤ | 1¤ | 4¤ |
| Nc1nc(N)c2ccc3c(ccn3Cc3cccc(C#Cc4ccccc4C(F)(F)F)c3)c2n1 [Example 45, 7-(3-((2-(trifluoromethyl)phenyl)ethynyl)benzyl)-7H-pyrrolo[2,3-h]quinazoline-2,4-diamine] |  | >64¤ | >64¤ | >64¤ | >64¤ | >64¤ | 2¤ | 2¤ | 32¤ |
| N#Cc1ccccc1-c1ccc(Cn2ccc3c4nc(N)nc(N)c4cnc32)cc1 [Example 49, 4′-((2,4-diamino-7H-pyrrolo[3′,2′:5,6]pyrido[4,3-d]pyrimidin-7-yl)methyl)-[1,1′-biphenyl]-2-carbonitrile] |  | >64¤ | >64¤ | 0.5¤ | >64¤ | >64¤ | ≤0.063¤ | ≤0.063¤ | <0.125¤ |
| Nc1nc(N)c2cnc3c(ccn3Cc3cccc(Br)c3)c2n1 [Example 50, 7-(3-bromobenzyl)-7H-pyrrolo[3′,2′:5,6]pyrido[4,3-d]pyrimidine-2,4-diamine] |  | >64¤ | 32¤ | 1¤ | >64¤ | >64¤ | ≤0.063¤ | ≤0.063¤ | ≤0.063¤ |
| N#Cc1ccccc1-c1ccc(CNc2nc(N)c3cnc4c(ccn4Cc4ccc(-c5ccccc5C#N)c(F)c4)c3n2)cc1F [Example 52, 4′-((4-amino-2-(((2′-cyano-2-fluoro-[1,1′-biphenyl]-4-yl)methyl)amino)-7H-pyrrolo[3′,2′:5,6]pyrido[4,3-d]pyrimidin-7-yl)methyl)-2′-fluoro-[1,1′-biphenyl]-2-carbonitrile] |  |  |  |  |  | >64¤ | >64¤ | >64¤ |  |
| C#Cc1ccc(Cn2ccc3c4nc(N)nc(N)c4cnc32)cc1 [Example 53, 7-(4-ethynylbenzyl)-7H-pyrrolo[3′,2′:5,6]pyrido[4,3-d]pyrimidine-2,4-diamine] |  |  |  |  |  | >64¤ | ≤0.063¤ | ≤0.063¤ |  |
